{"source": "the NIST ThermoML archive (doi:10.1016/j.fluid.2016.11.022)", "key": {"[1]": {"conditions": "Liquid; for self diffusion coefficient: NMR"}, "[2]": {"test": "xn = mol fraction of the nth substance listed", "conditions": "343.15 K, Liquid; for viscosity: Oscillating piston [Cambridge Applied Systems Model]; for molar volume: High-pressure cell with syringe pump"}}, "note": "± gives the expanded uncertainty stated by the source.", "data": [{"compound": "CCCCCC[n+]1ccn(C)c1.O=S(=O)([N-]S(=O)(=O)C(F)(F)F)C(F)(F)F", "values": [{"measurement": "self diffusion coefficient", "setting": "[1]; 298.15 K, 100 kPa", "result": "1.79e-11", "unit": "m2/s"}, {"measurement": "self diffusion coefficient", "setting": "[1]; 323.15 K, 100 kPa", "result": "5.54e-11", "unit": "m2/s"}, {"measurement": "self diffusion coefficient", "setting": "[1]; 343.15 K, 100 kPa", "result": "1.07e-10", "unit": "m2/s"}, {"measurement": "viscosity", "setting": "[1]; 343.15 K, 100 kPa, Oscillating piston [Cambridge Applied Systems Model]", "result": "14.07 ± 0.35", "unit": "mPa·s"}]}, {"compound": "CCCCCC[n+]1ccn(C)c1.O=S(=O)([N-]S(=O)(=O)C(F)(F)F)C(F)(F)F", "note": "+ FCC(F)(F)F", "values": [{"measurement": "viscosity", "setting": "[2]; 100 kPa, x2 = 0", "result": "14.07 ± 0.35", "unit": "mPa·s"}]}, {"compound": "FCC(F)(F)F", "note": "[1,1,1,2-tetrafluoroethane]", "values": [{"measurement": "self diffusion coefficient", "setting": "[1]; 298.15 K, 670 kPa", "result": "5.95e-09", "unit": "m2/s"}]}, {"compound": "FCC(F)(F)F", "note": "[1,1,1,2-tetrafluoroethane] + CCCCCC[n+]1ccn(C)c1.O=S(=O)([N-]S(=O)(=O)C(F)(F)F)C(F)(F)F", "values": [{"measurement": "molar volume", "setting": "[2]; 84 kPa, x1 = 0.0397", "result": "0.0003358 ± 3.2e-06", "unit": "m3/mol"}, {"measurement": "molar volume", "setting": "[2]; 212 kPa, x1 = 0.1086", "result": "0.0003159 ± 2.8e-06", "unit": "m3/mol"}, {"measurement": "viscosity", "setting": "[2]; 310 kPa, x1 = 0.148", "result": "12.62 ± 0.31", "unit": "mPa·s"}, {"measurement": "molar volume", "setting": "[2]; 395 kPa, x1 = 0.1956", "result": "0.0002928 ± 2.6e-06", "unit": "m3/mol"}, {"measurement": "viscosity", "setting": "[2]; 610 kPa, x1 = 0.276", "result": "11.97 ± 1.3", "unit": "mPa·s"}, {"measurement": "molar volume", "setting": "[2]; 615 kPa, x1 = 0.2904", "result": "0.0002669 ± 2.2e-06", "unit": "m3/mol"}, {"measurement": "viscosity", "setting": "[2]; 850 kPa, x1 = 0.364", "result": "9.33 ± 1.6", "unit": "mPa·s"}, {"measurement": "molar volume", "setting": "[2]; 971 kPa, x1 = 0.4272", "result": "0.0002313 ± 1.8e-06", "unit": "m3/mol"}, {"measurement": "viscosity", "setting": "[2]; 1130 kPa, x1 = 0.459", "result": "8.09 ± 0.18", "unit": "mPa·s"}, {"measurement": "molar volume", "setting": "[2]; 1320 kPa, x1 = 0.5508", "result": "0.0001984 ± 1.4e-06", "unit": "m3/mol"}, {"measurement": "viscosity", "setting": "[2]; 1470 kPa, x1 = 0.575", "result": "7.06 ± 0.3", "unit": "mPa·s"}, {"measurement": "molar volume", "setting": "[2]; 1732 kPa, x1 = 0.6867", "result": "0.0001653 ± 1e-06", "unit": "m3/mol"}, {"measurement": "molar volume", "setting": "[2]; 1956 kPa, x1 = 0.777", "result": "0.0001436 ± 8e-07", "unit": "m3/mol"}, {"measurement": "molar volume", "setting": "[2]; 2016 kPa, x1 = 0.8075", "result": "0.0001367 ± 6e-07", "unit": "m3/mol"}, {"measurement": "viscosity", "setting": "[2]; 2030 kPa, x1 = 0.813", "result": "3.24 ± 0.07", "unit": "mPa·s"}, {"measurement": "molar volume", "setting": "[2]; 2064 kPa, x1 = 0.8427", "result": "0.0001289 ± 6e-07", "unit": "m3/mol"}, {"measurement": "molar volume", "setting": "[2]; 2075 kPa, x1 = 0.8572", "result": "0.0001265 ± 4e-07", "unit": "m3/mol"}]}]}
